Paper PMC6407913, “DREADD Agonist 21 Is an Effective Agonist for Muscarinic-Based DREADDs in Vitro and in Vivo” (ACS Pharmacology & Translational Science, 2018)
Positions count from the first letter of the chain named.

Tests used:
hM1 [1] = biological target: T1, hM1 (Homo sapiens, UniProt P11229); test: whole-cell [3H]NMS competition binding; conditions: hM1, FlpIn CHO cells, mean (±SEM)
T1 sequence (P11229 1-460): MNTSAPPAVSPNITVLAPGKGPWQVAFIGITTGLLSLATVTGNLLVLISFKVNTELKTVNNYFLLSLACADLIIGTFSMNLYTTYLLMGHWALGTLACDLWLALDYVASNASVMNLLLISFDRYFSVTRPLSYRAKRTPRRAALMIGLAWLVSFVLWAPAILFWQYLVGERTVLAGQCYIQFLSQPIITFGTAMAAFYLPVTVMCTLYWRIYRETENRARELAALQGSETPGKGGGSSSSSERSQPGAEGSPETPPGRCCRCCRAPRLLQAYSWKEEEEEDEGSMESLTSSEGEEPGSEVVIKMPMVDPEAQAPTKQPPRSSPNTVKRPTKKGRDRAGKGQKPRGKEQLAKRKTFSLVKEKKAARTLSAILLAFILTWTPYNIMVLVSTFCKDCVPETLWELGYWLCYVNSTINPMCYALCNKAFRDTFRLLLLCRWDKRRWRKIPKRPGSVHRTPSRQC

[2] = brain protein binding (brain homogenate); type: in vitro ADME, mouse
dopamine D1 receptors = dopamine D1 receptors (Homo sapiens, UniProt P21728); test: cAMP signaling concentration-response, agonist mode; type: cell-based
dopamine D1 receptors, sequence (P21728 whole entry): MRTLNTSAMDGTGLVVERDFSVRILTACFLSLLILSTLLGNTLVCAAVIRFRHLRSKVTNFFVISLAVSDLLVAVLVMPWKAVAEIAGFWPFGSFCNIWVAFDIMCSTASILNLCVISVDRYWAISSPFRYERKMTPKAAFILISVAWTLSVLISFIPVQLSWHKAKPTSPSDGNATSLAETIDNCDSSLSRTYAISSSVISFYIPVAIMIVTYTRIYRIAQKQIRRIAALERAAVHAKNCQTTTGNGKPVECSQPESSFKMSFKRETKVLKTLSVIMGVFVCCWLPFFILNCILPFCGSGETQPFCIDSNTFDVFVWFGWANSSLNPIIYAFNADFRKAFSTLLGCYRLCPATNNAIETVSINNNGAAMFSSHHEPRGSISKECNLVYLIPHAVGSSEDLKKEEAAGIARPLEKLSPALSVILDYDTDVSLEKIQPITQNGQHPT
Experimental: HEK293 T cells were used for transient transfections and Gi mediated cAMP production assays. Assays were performed according to published procedures (PMID25895059, PRESTO-Tango paper). More detailed assay protocols are available at NIMH PDSP Web site (http://pdspdb.unc.edu/pdspWeb/?site=assays).
HEK293T cells in 10 cm plates were transfected with 4 μg of Glosensor and 4 μg of DNA encoding the human dopamine D1 receptor. The next day, cells were harvested and plated in polylysine-coated 384-well plates (Greiner) at a density of 20 000 cells/well in DMEM containing 1% dFBS. The next day, media was aspirated from each well and replaced with 20 μL of assay buffer containing 4 mM luciferin. Then, 10 μL of drugs were added 30 min later, and plates were read after 15 min.

hM1Dq = biological target: T2, hM1Dq (Homo sapiens, UniProt P11229, A196G/Y106C); test: whole-cell [3H]NMS competition binding
T2 sequence (P11229 1-460 Y106C/A196G): T1 sequence (P11229 1-460) with Y106C, A196G

[3] = tested on: hM4Di expressed in PVH SIM1 neurons; test: food intake, hM4Di in PVH SIM1 neurons (Sim1-Cre mice)
[4] = tested on: hM3Dq-expressing lateral hypothalamic vGAT neurons; test: recordings from lateral hypothalamic vGAT neurons; type: cell-based
hM1 [5] = biological target: T1, hM1; test: IP-One accumulation assay; type: cell-based; conditions: wildtype hM1

SMILES: c1ccc2c(c1)N=C(N1CCNCC1)c1ccccc1N2 [C21, 11-(1-piperazinyl)-5H-dibenzo[b,e][1,4]diazepine]
- Ki (hM1 [1]): 1070 nM
- unbound in brain ([2]; brain): 4.9%
- fraction unbound ([2]; mouse, brain homogenate): 0.05
- agonist activity, follow-up concentration-response (cAMP) (dopamine D1 receptors): minimal activity
- Ki (hM1Dq): 63.1 nM
- higher binding affinity at hM1Dq than at wildtype hM1 (hM1Dq; hM1Dq vs hM1): > 10 fold
- food intake, light cycle, sated mice ([3]; SIM1-Cre mice with AAV-DIO-hM4Di-mCherry, i.p.): substantially enhanced food consumption at comparable levels to CNO
- food intake in control mice ([3]; wildtype (non-Cre-expressing) littermates injected with AAV-DIO-hM4Di-mCherry): neither C21 nor CNO ligand influenced food intake
- depolarization of neurons [4]: depolarization
- agonist activity in IP1 assay (hM1 [5]): no agonist activity
